This note sets out measurements from patent publication US20060094749A1, “Substituted pyridoxines as anti-platelet agents” (Medicure International Inc., priority 2004, published 2006).

What all share (assay type): cell-based
The subject of test [1] is platelets (platelet rich plasma). Briefly: Inhibition of platelet aggregation, thrombin receptor activating peptide (TRAP) as agonist. Conditions: TRAP 12 μM, human PRP, read-out: % Reduction in Aggregation, TRAP (12 μM); for inhibition at 250 µM: compound 250 μM; for inhibition at 500 µM: compound 500 μM. As for the experimental part: (§1) Platelet rich plasma (PRP) was obtained by drawing whole blood from normal human donors (not on any medication) into sodium citrate tubes (3.2%), and centrifuging at 160 xg for about 10 minutes. Platelet poor plasma (PPP) was obtained by centrifuging the remainder of the sample after the platelets were removed at 800 xg for about 10 minutes. The PRP was adjusted to a count of 280×10^9/L using a mixture of PRP and PPP. The platelets (200 μL) were incubated with the test compounds (25 μL) adjusted to various concentrations (50, 100, 250, and 500 μM) for about 30 minutes at room temperature (approximate final platelet count in the incubation mixture of 250×10^9/L). The samples were incubated for about 3 minutes at about 37° C., and then transferred to the mixing wells of a Chrono-log 4 channel aggregometer (Chrono-log Corp., Havertown, Pa.). After baselines were established, the agonist (25 μL of 40 μM ADP (Sigma, St. Louis, Mo.) or 25 μL of 50 μg/mL and 10 μg/mL collagen (Helena Laboratories, Beaumont, Tex.) or 25 μL of 120 μM thrombin receptor activating peptide (TRAP) (Sigma)) was then added. Aggregation was monitored for 5 minutes at 37° C. with stirring (1000 rpm). The amplitude and slope of each tracing were calculated to determine the amount of aggregation. Control samples were performed using only solvent. The % reduction in aggregation was calculated for each sample compared to the proper solvent control.

For test [2] the test system is unchanged. Description: Inhibition of platelet aggregation, collagen as agonist. The note with it: human PRP; for inhibition at 250 µM: compound 250 μM; for inhibition at 500 µM: compound 500 μM. As for the experimental part:
as §1

Test [3] has the same test system. Briefly: Inhibition of platelet aggregation, ADP as agonist. Conditions: ADP 4 μM, human PRP, read-out: % Reduction in Aggregation, ADP (4 μM); for inhibition at 250 µM: compound 250 μM; for inhibition at 500 µM: compound 500 μM. As for the experimental part: as §1
The mark [4] stands for this setting: collagen 1 μg/mL, read-out: % Reduction in Aggregation, Collagen (1 μg/mL).
Where [5] appears, read: collagen 5 μg/mL, read-out: % Reduction in Aggregation, Collagen (5 μg/mL).

Consider `Cc1ncc(CNC(=O)c2ccc(-c3ccc(C(=N)N)cc3)cc2)c(CO)c1O` [Compound 20, 4′-Carbamimidoyl-biphenyl-4-carboxylic (5-hydroxyl-4-hydroxymethyl-6-methyl-pyridin-3-ylmethyl)-amide], for which the inhibition at 250 µM in test [1] is 95%; in test [2] (setting [4]) it was 94%; in test [2] (setting [5]) it was 64%; in test [3], 93%.
Take `Cc1ncc(CCNC(=O)c2cccc(C(=N)N)c2)c(CO)c1O` [Compound 61, 3-Carbamimidoyl-N-[2-(5-hydroxy-4-hydroxymethyl-6-methyl-pyridin-3-yl)-ethyl]-benzamide]: the inhibition at 500 µM in test [1] was 0%; in test [2] (setting [4]), 0%; in test [2] (setting [5]) it was 10%; in test [3] it was 2%.
For `Cc1ncc(CNC(=O)c2ccc(-c3ccc([N+](=O)[O-])nc3)cc2)c(CO)c1O` [Compound 18, N-(5-Hydroxy-4-hydroxymethyl-6-methyl-pyridin-3-ylmethyl)-4-(6-nitro-pyridin-3-yl)-benzamide], the inhibition at 250 µM in test [1] was 30%; in test [2] (setting [4]) it was 6%; in test [2] (setting [5]) it was 7%; in test [3], 10%.
Turning to `Cc1ncc(CCNC(=O)c2ccc(C(=N)N)cc2)c(CO)c1O` [Compound 59, 4-Carbamimidoyl-N-[2-(5-hydroxy-4-hydroxymethyl-6-methyl-pyridin-3-yl)-ethyl]-benzamide], the inhibition at 500 µM in test [1] worked out at 67%; in test [2] (setting [4]), 28%; in test [2] (setting [5]) it was 11%; in test [3], 55%.
The like results for `Cc1ncc(CCNCc2ccc(C(=N)N)cc2)c(CO)c1O` [Compound 55, 4-{[2-(5-Hydroxy-4-hydroxymethyl-6-methyl-pyridin-3-yl)-ethylamino]-methyl}-benzamidine] were, in that order, 75%, 24%, 20% and 38%.
The like results for `Cc1ncc(CNC(=O)c2cccc(C(=N)N)c2)c(CO)c1O` [Compound 2, 3-Carbamimidoyl-N-(5-hydroxy-4-hydroxymethyl-6-methyl-pyridin-3-ylmethyl)-benzamide] were, in that order, 6%, 3%, 12% and 10%.
For `Cc1ncc(CNc2cccc(C(=N)N)c2)c(CO)c1O` [Compound 14, 3-[(5-Hydroxy-4-hydroxymethyl-6-methyl-pyridin-3-ylmethyl)-amino]-benzamidine], in that order: 8%, 0%, 3% and 16%.
With `Cc1ncc(CNc2ccc(-c3ccc(C(=N)N)cc3)cc2)c(C)c1O` [Compound 43, 4′-[(5-Hydroxy-4,6-dimethyl-pyridin-3-ylmethyl)-amino]-biphenyl-4-carboxamidine], the inhibition at 250 µM is 69% in test [1], 100% in test [2] (setting [4]), 0% in test [2] (setting [5]) and 87% in test [3].
For `COc1c(C)ncc(CNC(=O)c2ccc(-c3ccc(C(=N)N)cc3)cc2)c1CO` [Compound 23, 4′-Carbamimidoyl-biphenyl-4-carboxylic acid (4-hydroxymethyl-5-methoxy-6-methyl-pyridin-3-ylmethyl)-amide], in that order: 27%, 19%, 17% and 39%.
`Cc1ncc(CCNCc2cccc(C(=N)N)c2)c(CO)c1O` [Compound 57, 3-{[2-(5-Hydroxy-4-hydroxymethyl-6-methyl-pyridin-3-yl)ethylamino]methyl}-benzamidine]: the inhibition at 500 µM came to 14% in test [1], 6% in test [2] (setting [4]), 0% in test [2] (setting [5]) and 0% in test [3].
